Common to all, as to experiment: drug sensitivity score (DSS2, normalised partial AUC of dose-response, 72 h CellTiter-Glo viability) (DSS (dimensionless)); higher = more sensitive (stronger growth inhibition / cytotoxicity); extreme values may be limits of the assay
(In general: Cellular ATP, detected with luciferase, serves as a proxy for viable cell number.)

The test system of assay [1] is WPMY-1. In short, it runs like this:
(§1)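 Low-passage primary prostate cancer-associated fibroblasts, PF179T, WPMY-1, LNCaP and 22Rv1 cells were seeded into 384-well plates carrying pre-dispensed compounds at five doses covering a 10,000-fold range. After 72 h, viability was read by CellTiter-Glo 2.0 luminescence. Responses were scaled to vehicle and positive-control wells. The drug sensitivity score (DSS2) is a partial area under the fitted logistic dose–response curve divided by the log of its upper asymptote, computed in BREEZE; higher means more sensitive.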

Assay [2] has as its system CAF#5 (primary prostate cancer-associated fibroblasts of myCAF-like type). Put shortly: as §1
The subject of assay [3] is LNCAP. Put shortly:
as §1

Assay [4] deals with CAF#2 (primary prostate cancer-associated fibroblasts of iCAF-like type). Put shortly: as §1
Assay [5] concerns CAF#1 (primary prostate cancer-associated fibroblasts of myCAF-like type). Put shortly:
as §1

The test system of assay [6] is CAF#6 (primary prostate cancer-associated fibroblasts of iCAF-like type). In short, it runs like this:
as §1

Assay [7] concerns CAF#3 (primary prostate cancer-associated fibroblasts of myCAF-like type). In short, it runs like this: as §1
Assay [8] has as its system CAF#7 (primary prostate cancer-associated fibroblasts of myCAF-like type). Put shortly:
as §1

Assay [9] concerns PF179T. In short, it runs like this: as §1
Assay [10] concerns 22Rv1. Put shortly: as §1
Assay [11] has as its system CAF#4 (primary prostate cancer-associated fibroblasts of iCAF-like type). Put shortly: as §1

Consider `Cc1ccccc1CN1C(=O)C2=C(CCN(Cc3ccccc3)C2)N2CCN=C12` [ONC201] (tested concentration range 2.5-25000 nM), for which the drug sensitivity score in assay [1] was determined as 6.9; in assay [2] it was 3.1; in assay [3] it was 9.3; in assay [4], 6.2; in assay [5] it was 3.6; in assay [6], 4.1. In addition, the drug sensitivity score turned out to be 2.3 in assay [7]; 3.8 in assay [8]; 3.1 in assay [9]; 13.9 in assay [10]; 3.4 in assay [11].

Take `CC[C@@H]1[C@H](F)C(=O)N[C@@H]1COc1nccc2cc(C(N)=O)c(OC)cc12` (tested concentration range 1-10000 nM): the drug sensitivity score in assay [1] amounted to 0; in assay [2] it was 0; in [3], 1.6; in [4], 0.4; in assay [5] it was 0; in assay [6], 0. For the same molecule, the drug sensitivity score in assay [7] was 0; in [8], 0.1; in assay [9], 0; in assay [10], 1.4; in [11], 0.

Regarding `Cc1ccc(-n2nc(C(C)(C)C)cc2NC(=O)Nc2ccc(OCCN3CCOCC3)c3ccccc23)cc1` [Doramapimod] (tested concentration range 1-10000 nM), the drug sensitivity score in assay [1] came to 0; in assay [2] it was 0.6; in [3], 5.4; in assay [4] it was 2.7; in [5] it was 1.9; in [6] it was 0.9. Moreover, the drug sensitivity score in assay [7] was determined as 1.2; in assay [8], 1.4; in [9] it was 2.1; in [10], 2.5; in assay [11] it was 0.

As to `CS(=O)(=O)CCNCc1ccc(-c2ccc3ncnc(Nc4ccc(OCc5cccc(F)c5)c(Cl)c4)c3c2)o1` [Lapatinib] (tested concentration range 0.1-1000 nM), the drug sensitivity score in assay [1] is 0; in [2], 0; in assay [3] it was 0.3; in assay [4] it was 0; in assay [5], 0; in assay [6], 0. For the same molecule, the drug sensitivity score was 0.1 in [7]; 0 in [8]; 0 in assay [9]; 0 in [10]; 0 in assay [11].

Consider `NS(=O)(=O)OC[C@@H]1C[C@@H](n2ccc3c(N[C@H]4CCc5ccccc54)ncnc32)C[C@@H]1O` [Pevonedistat] (tested concentration range 1-10000 nM), for which the drug sensitivity score in assay [1] worked out at 12.6; in [2], 9; in [3] it was 29.6; in assay [4], 13; in assay [5], 4.4; in assay [6], 5.7. The drug sensitivity score in [7] came to 0; in assay [8], 5; in assay [9], 6.4; in assay [10], 18.9; in [11] it was 7.

For `CC1(C)CCC(c2ccc(Cl)cc2)=C(CN2CCN(c3ccc(C(=O)NS(=O)(=O)c4ccc(N[C@H](CCN5CCOCC5)CSc5ccccc5)c(S(=O)(=O)C(F)(F)F)c4)cc3)CC2)C1` [Navitoclax] (tested concentration range 1-10000 nM), the drug sensitivity score in assay [1] stood at 0.6; in assay [2], 2.3; in assay [3] it was 7.5; in assay [4] it was 0; in assay [5] it was 3; in assay [6], 3.1. Besides, the drug sensitivity score came to 0 in assay [7]; 0.7 in assay [8]; 0 in assay [9]; 0 in assay [10]; 7.5 in [11].

For `Cc1cccc(-c2nn3c(c2-c2ccnc4ccc(C(N)=O)cc24)CCC3)n1` [Galunisertib] (tested concentration range 0.1-1000 nM), the drug sensitivity score in [1], in [2], in assay [3], in [4], in assay [5] and in [6] was 0 in each case. For the same molecule, the drug sensitivity score turned out to be 0.1 in assay [7]; 0 in assay [8]; 0 in assay [9]; 0 in assay [10]; 0 in assay [11].

As for `O=c1[nH]c(=O)n([C@H]2C[C@H](O)[C@@H](CO)O2)cc1F` [Floxuridine] (tested concentration range 1-10000 nM), the drug sensitivity score in [1] turned out to be 24; in assay [2], 1.4; in assay [3], 15.2; in assay [4] it was 4.3; in [5] it was 1.8; in assay [6] it was 2.3. Also, the drug sensitivity score in assay [7] stood at 1.1; in assay [8] it was 3; in [9] it was 5.1; in [10], 6; in assay [11], 2.

Take `CCN(CC)CCCC(C)Nc1ccnc2cc(Cl)ccc12` (stereo not drawn) [Chloroquine] (tested concentration range 10-100000 nM): the drug sensitivity score in assay [1] came to 10.4; in [2] it was 7.4; in assay [3], 9.8; in [4], 9.8; in assay [5] it was 5.7; in assay [6], 8.2. Also, the drug sensitivity score is 8.4 in assay [7]; 8.6 in assay [8]; 9.5 in assay [9]; 11.2 in assay [10]; 8.6 in assay [11].

In the case of `O=C(NCc1ccncc1)C12CC3CC(C1)CC(c1ccc(Cl)cc1)(C3)C2` [Opaganib] (tested concentration range 5-50000 nM), the drug sensitivity score in assay [1] came to 6.8; in assay [2] it was 0.7; in [3], 8.6; in [4], 4.4; in assay [5], 2.7; in assay [6], 0.7. Further, the drug sensitivity score in [7] is 1.2; in assay [8], 0.4; in [9], 3.8; in [10], 5.9; in [11], 4.1.

As to `CC[C@@H]1C(=O)N(C)c2cnc(Nc3ccc(C(=O)N[C@H]4CC[C@H](N5CCN(CC6CC6)CC5)CC4)cc3OC)nc2N1C(C)C` [Volasertib] (tested concentration range 0.1-1000 nM), the drug sensitivity score was 11.4 in assay [1]; 1.7 in assay [2]; 19.3 in assay [3]; 5.1 in [4]; 0.4 in assay [5]; 1.9 in assay [6]. Moreover, the drug sensitivity score in assay [7] is 4.2; in assay [8], 2.9; in [9], 5.9; in [10], 14.9; in [11], 0.

On to `CC[C@]1(O)C[C@H]2CN(CCc3c([nH]c4ccccc34)[C@@](C(=O)OC)(c3cc4c(cc3OC)N(C=O)[C@H]3[C@@](O)(C(=O)OC)[C@H](OC(C)=O)[C@]5(CC)C=CCN6CC[C@]43[C@@H]65)C2)C1` [Vincristine] (tested concentration range 0.1-1000 nM), for which the drug sensitivity score in [1] came out at 12.1; in assay [2], 4.3; in assay [3], 26; in [4] it was 5.1; in assay [5], 4.4; in assay [6] it was 5.6. For the same molecule, the drug sensitivity score in assay [7] turned out to be 4.7; in assay [8], 11.5; in assay [9] it was 4.5; in assay [10], 12.3; in assay [11], 2.

With `CN1CC[C@H](c2c(O)cc(O)c3c(=O)cc(-c4ccccc4Cl)oc23)[C@H](O)C1` [Alvocidib] (tested concentration range 1-10000 nM), the drug sensitivity score in assay [1] is 16.5; in assay [2], 15.4; in assay [3], 18.2; in assay [4], 16.8; in assay [5], 15.9; in assay [6], 13.9. In addition, the drug sensitivity score came to 16.5 in assay [7]; 15.4 in assay [8]; 10 in [9]; 17.4 in assay [10]; 12.7 in assay [11].
